{"source": "patent US20230176038A1", "about": "“Methods for Identifying Modulators of Insect Transient Receptor Potential Channels” (BASF Corporation, priority 2019, published 2023)", "key": {"[1]": {"biological_target": "T1, complexes formed by Nanchung protein and Inactive protein (Nan + Iav) (Drosophila melanogaster, UniProt Q9VUD5+Q9W3W0)", "T1 construct": "full-length Iav C-terminally fused to FLAG tags and AcGFP; adenoviral co-expression in CHO-K1, membranes; [3H]-afidopyropen tracer", "T1 sequence (Q9VUD5 1-833)": "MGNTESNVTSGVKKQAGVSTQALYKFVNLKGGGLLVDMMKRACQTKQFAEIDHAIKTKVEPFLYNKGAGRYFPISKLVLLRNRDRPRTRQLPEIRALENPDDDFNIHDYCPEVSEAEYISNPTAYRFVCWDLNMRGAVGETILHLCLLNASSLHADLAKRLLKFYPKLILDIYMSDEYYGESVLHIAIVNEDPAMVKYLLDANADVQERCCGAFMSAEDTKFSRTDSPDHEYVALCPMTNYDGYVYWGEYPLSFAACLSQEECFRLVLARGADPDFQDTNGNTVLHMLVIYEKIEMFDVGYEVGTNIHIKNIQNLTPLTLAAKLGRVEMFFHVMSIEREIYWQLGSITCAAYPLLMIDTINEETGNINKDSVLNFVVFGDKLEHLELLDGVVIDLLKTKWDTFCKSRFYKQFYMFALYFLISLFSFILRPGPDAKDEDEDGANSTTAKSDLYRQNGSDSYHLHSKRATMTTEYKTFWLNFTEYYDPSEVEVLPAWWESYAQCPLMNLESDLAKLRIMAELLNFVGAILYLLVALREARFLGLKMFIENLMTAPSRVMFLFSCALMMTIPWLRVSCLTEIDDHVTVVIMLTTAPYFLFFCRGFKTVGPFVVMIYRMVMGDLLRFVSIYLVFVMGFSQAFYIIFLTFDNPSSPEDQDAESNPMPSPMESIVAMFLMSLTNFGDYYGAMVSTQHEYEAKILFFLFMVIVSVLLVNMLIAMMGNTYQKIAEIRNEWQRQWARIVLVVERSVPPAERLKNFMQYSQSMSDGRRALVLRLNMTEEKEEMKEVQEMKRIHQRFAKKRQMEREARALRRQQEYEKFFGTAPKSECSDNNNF", "T1 sequence (Q9W3W0 1-1123)": "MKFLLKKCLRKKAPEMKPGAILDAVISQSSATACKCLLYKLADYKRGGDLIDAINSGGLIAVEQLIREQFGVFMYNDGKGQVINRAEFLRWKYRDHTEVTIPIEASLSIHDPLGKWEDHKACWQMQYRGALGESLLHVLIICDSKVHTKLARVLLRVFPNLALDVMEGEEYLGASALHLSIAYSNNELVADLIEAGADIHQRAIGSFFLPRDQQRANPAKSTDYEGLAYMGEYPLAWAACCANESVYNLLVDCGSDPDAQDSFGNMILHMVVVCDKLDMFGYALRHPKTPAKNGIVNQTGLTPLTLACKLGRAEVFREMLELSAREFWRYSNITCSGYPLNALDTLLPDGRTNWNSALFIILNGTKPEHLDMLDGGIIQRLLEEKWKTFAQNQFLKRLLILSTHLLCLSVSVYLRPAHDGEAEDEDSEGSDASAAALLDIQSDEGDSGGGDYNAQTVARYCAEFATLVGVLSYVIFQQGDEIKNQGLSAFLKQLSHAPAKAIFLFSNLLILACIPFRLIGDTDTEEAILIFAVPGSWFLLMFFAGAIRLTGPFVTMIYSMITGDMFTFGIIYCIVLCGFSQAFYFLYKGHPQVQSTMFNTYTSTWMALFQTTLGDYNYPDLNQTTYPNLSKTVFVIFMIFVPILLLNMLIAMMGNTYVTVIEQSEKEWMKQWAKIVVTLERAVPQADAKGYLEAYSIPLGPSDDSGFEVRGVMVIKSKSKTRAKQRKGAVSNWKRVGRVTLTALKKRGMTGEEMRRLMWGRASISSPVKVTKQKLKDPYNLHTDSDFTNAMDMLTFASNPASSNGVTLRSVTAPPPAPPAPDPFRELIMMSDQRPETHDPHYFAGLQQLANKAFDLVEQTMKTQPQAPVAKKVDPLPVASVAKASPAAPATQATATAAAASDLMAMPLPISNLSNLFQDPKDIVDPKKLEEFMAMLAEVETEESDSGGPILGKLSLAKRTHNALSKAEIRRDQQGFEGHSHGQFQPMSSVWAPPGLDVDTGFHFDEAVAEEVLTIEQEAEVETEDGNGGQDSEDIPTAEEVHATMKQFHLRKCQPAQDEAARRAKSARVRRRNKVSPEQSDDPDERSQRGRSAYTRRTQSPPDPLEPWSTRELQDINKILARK", "assay": "Competition binding with [3H]-afidopyropen to membranes from CHO-K1 cells co-expressing Nanchung and Inactive", "details": "FIG. 6, [3H]-afidopyropen displacement, Nan (SEQ ID NO 7) C-terminal HA/mCherry, Iav (NP_572353) C-terminal FLAG/AcGFP, pH 7.4, 3 h room temperature, Cheng-Prusoff, read-out: Nan + Iav (Nanchung:Inactive complex) Ki"}, "[2]": {"biological_target": "T2, complexes formed by Nanchung and Water witch proteins (Wtrw + Nan) (Drosophila melanogaster, UniProt Q9VHY7+Q9VUD5)", "T2 construct": "adenoviral co-expression in CHO-K1 cells, fluo-4 calcium FLIPR", "T2 sequence (Q9VUD5 1-833)": "T1 sequence (Q9VUD5 1-833)", "T2 sequence (Q9VHY7 1-986)": "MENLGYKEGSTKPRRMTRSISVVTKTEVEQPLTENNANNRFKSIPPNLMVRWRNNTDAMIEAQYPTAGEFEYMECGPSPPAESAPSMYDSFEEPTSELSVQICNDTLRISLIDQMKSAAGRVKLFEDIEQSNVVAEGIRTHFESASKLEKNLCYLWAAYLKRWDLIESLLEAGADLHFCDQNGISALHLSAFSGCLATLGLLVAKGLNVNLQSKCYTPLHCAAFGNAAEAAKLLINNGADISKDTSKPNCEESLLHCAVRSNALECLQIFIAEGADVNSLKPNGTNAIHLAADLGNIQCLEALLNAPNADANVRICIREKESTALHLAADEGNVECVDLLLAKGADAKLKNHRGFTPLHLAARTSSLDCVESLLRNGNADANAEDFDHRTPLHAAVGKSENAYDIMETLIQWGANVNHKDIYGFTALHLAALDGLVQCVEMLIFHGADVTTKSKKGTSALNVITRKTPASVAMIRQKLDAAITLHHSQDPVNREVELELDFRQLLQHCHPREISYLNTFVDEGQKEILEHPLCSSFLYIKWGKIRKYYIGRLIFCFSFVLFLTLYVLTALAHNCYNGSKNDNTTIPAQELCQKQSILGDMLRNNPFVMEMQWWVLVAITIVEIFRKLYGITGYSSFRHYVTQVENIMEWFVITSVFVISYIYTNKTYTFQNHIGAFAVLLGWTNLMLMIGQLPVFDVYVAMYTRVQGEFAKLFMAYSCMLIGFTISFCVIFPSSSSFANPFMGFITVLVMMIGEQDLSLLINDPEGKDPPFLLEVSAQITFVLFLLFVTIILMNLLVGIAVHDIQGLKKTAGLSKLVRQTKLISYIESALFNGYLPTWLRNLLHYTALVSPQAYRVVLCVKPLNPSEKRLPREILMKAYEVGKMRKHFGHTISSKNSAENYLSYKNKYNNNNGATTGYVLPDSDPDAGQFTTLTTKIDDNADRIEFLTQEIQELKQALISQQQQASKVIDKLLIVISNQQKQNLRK", "assay": "Calcium mobilization (fluo-4AM, FLIPR-TETRA) in CHO-K1 cells co-expressing Water witch and Nanchung", "format": "cell-based"}, "[3]": {"biological_target": "T3, complexes formed by Nanchung protein and Water witch protein (Nan + Wtrw) (Drosophila melanogaster, UniProt Q9VHY7+Q9VUD5)", "T3 construct": "adenoviral co-expression in CHO-K1, membranes; [3H]-afidopyropen tracer", "T3 sequence (Q9VUD5 1-833)": "T1 sequence (Q9VUD5 1-833)", "T3 sequence (Q9VHY7 1-986)": "T2 sequence (Q9VHY7 1-986)", "assay": "Competition binding with [3H]-afidopyropen to membranes from CHO-K1 cells co-expressing Nanchung and Water witch", "details": "FIG. 6, [3H]-afidopyropen displacement, Nan (SEQ ID NO 7) C-terminal HA/mCherry, Wtrw (SEQ ID NO 63) C-terminal FLAG/AcGFP, pH 7.4, 3 h room temperature, Cheng-Prusoff, read-out: Nan + Wtrw (Nanchung:Water witch complex) Ki"}}}
{"smiles": "CC1=NNC(=O)N(/N=C/c2cccnc2)C1", "note": "[Pymetrozine, pymetrozine]", "values": [{"measurement": "Ki", "setting": "[1]", "value": 43, "unit": "nM"}, {"measurement": "EC50", "setting": "[2]", "value": 96, "unit": "nM"}, {"measurement": "Ki", "setting": "[3]", "value": 102, "unit": "nM"}]}
